Reference: patent publication US9708314B2, “Heterocyclic amide compound” (NISSAN CHEMICAL INDUSTRIES, LTD., priority 2013, dated 2017)

Columns and labels:
Format in all cases: in vivo
[1] = tested on: directly sowed Oryza sativa; assay: Test Example 3: effect on crop by application to foliage (Wagner pot, water depth 0.1-0.5 cm); conditions: Nineteenth Table; application herbicide amount 320 g/ha
Summary of the method: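 Alluvial soil in 1/10000 are Wagner pots, sown and grown 14 days in a 25–30 °C greenhouse. An emulsifiable concentrate diluted in water to the set dose (g/ha) was sprayed on stems and leaves. Effect scored three weeks later on a 0–5 scale: 5 = ≥90% herbicidal ratio, 0 = ≤5%.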

[2] = tested on: Abutilon theophrasti; assay: Test Example 4: herbicidal effect by application to foliage (diluvial soil, plastic box); conditions: application to foliage, application herbicide amount 320 g/ha
Summary of the method: (§1)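 Seeds sown in sterilized diluvial soil, covered ~1.5 cm, grown 14 days in greenhouse at 25° C. to 30° C. Emulsion formulation diluted in water to set rate (g/ha) and sprayed onto stems and leaves. Effect scored visually 3 weeks later on 0–5 scale (5 = ≥90% herbicidal ratio, 0 = ≤5%).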

[3] = tested on: Alopecurus myosuroides; assay: as above; conditions: application to foliage, application herbicide amount 320 g/ha
Summary of the method: as §1

[4] = tested on: Amaranthus retroflexus; assay: as above; conditions: application to foliage, application herbicide amount 320 g/ha
Summary of the method: as §1

[5] = tested on: Apera spica-venti.; assay: as above; conditions: application to foliage, application herbicide amount 320 g/ha
Summary of the method: as §1

[6] = tested on: Avena fatua; assay: as above; conditions: application to foliage, application herbicide amount 320 g/ha
Summary of the method: as §1

[7] = tested on: Digitaria ciliaris; assay: as above; conditions: application to foliage, application herbicide amount 320 g/ha
Summary of the method: as §1

[8] = tested on: Galium spurium; assay: as above; conditions: application to foliage, application herbicide amount 320 g/ha
Summary of the method: as §1

[9] = tested on: Lolium multiflorum Lam.; assay: as above; conditions: application to foliage, application herbicide amount 320 g/ha
Summary of the method: as §1

[10] = tested on: Setaria viridis; assay: as above; conditions: application to foliage, application herbicide amount 320 g/ha
Summary of the method: as §1

[11] = tested on: Stellaria media; assay: as above; conditions: application to foliage, application herbicide amount 320 g/ha
Summary of the method: as §1

[12] = tested on: Veronica persica; assay: as above; conditions: application to foliage, application herbicide amount 320 g/ha
Summary of the method: as §1

SMILES	b (directly sowed Oryza sativa) effect on crop grade [1]	M (Abutilon theophrasti) herbicidal effect [2]	J (Alopecurus myosuroides) herbicidal effect [3]	N (Amaranthus retroflexus) herbicidal effect [4]	L (Apera spica-venti.) herbicidal effect [5]	I (Avena fatua) herbicidal effect [6]	F (Digitaria ciliaris) herbicidal effect [7]	Q (Galium spurium) herbicidal effect [8]	K (Lolium multiflorum Lam.) herbicidal effect [9]	G (Setaria viridis) herbicidal effect [10]	P (Stellaria media) herbicidal effect [11]	R (Veronica persica) herbicidal effect [12]
CCS(=O)(=O)c1nnc2c(C(=O)Nc3nnc(C)o3)ccc(C(F)(F)F)n12 [1-041]	2 (Herbicidal ratio of 20% or more and less than 40%)	5 (Herbicidal ratio of 90% or more (almost completely withered))	1 (Herbicidal ratio of 5% or more and less than 20%)	5 (Herbicidal ratio of 90% or more (almost completely withered))	4 (Herbicidal ratio of 70% or more and less than 90%)	3 (Herbicidal ratio of 40% or more and less than 70%)	5 (Herbicidal ratio of 90% or more (almost completely withered))	3 (Herbicidal ratio of 40% or more and less than 70%)	2 (Herbicidal ratio of 20% or more and less than 40%)	4 (Herbicidal ratio of 70% or more and less than 90%)	5 (Herbicidal ratio of 90% or more (almost completely withered))	4 (Herbicidal ratio of 70% or more and less than 90%)
CCOC(=O)Cc1nnc2c(C(=O)Nc3nnc(C)o3)ccc(C(F)(F)F)n12 [1-042]	1 (Herbicidal ratio of 5% or more and less than 20%)	4 (Herbicidal ratio of 70% or more and less than 90%)	0 (Herbicidal ratio of 5% or less (almost no effect))	4 (Herbicidal ratio of 70% or more and less than 90%)	2 (Herbicidal ratio of 20% or more and less than 40%)	2 (Herbicidal ratio of 20% or more and less than 40%)	4 (Herbicidal ratio of 70% or more and less than 90%)	3 (Herbicidal ratio of 40% or more and less than 70%)	0 (Herbicidal ratio of 5% or less (almost no effect))	3 (Herbicidal ratio of 40% or more and less than 70%)	4 (Herbicidal ratio of 70% or more and less than 90%)	4 (Herbicidal ratio of 70% or more and less than 90%)
Cc1ccc(-c2nnc3c(C(=O)Nc4nnc(C)o4)ccc(C(F)(F)F)n23)cc1 [1-043]	5 (Herbicidal ratio of 90% or more (almost completely withered))	5 (Herbicidal ratio of 90% or more (almost completely withered))	1 (Herbicidal ratio of 5% or more and less than 20%)	5 (Herbicidal ratio of 90% or more (almost completely withered))	1 (Herbicidal ratio of 5% or more and less than 20%)	2 (Herbicidal ratio of 20% or more and less than 40%)	4 (Herbicidal ratio of 70% or more and less than 90%)	3 (Herbicidal ratio of 40% or more and less than 70%)	1 (Herbicidal ratio of 5% or more and less than 20%)	3 (Herbicidal ratio of 40% or more and less than 70%)	4 (Herbicidal ratio of 70% or more and less than 90%)	4 (Herbicidal ratio of 70% or more and less than 90%)
Cc1nnc(NC(=O)c2ccc(C(F)(F)F)n3c(-c4ccc(F)cc4)nnc23)o1 [1-044]	3 (Herbicidal ratio of 40% or more and less than 70%)	5 (Herbicidal ratio of 90% or more (almost completely withered))	1 (Herbicidal ratio of 5% or more and less than 20%)	5 (Herbicidal ratio of 90% or more (almost completely withered))	4 (Herbicidal ratio of 70% or more and less than 90%)	1 (Herbicidal ratio of 5% or more and less than 20%)	4 (Herbicidal ratio of 70% or more and less than 90%)	3 (Herbicidal ratio of 40% or more and less than 70%)	2 (Herbicidal ratio of 20% or more and less than 40%)	4 (Herbicidal ratio of 70% or more and less than 90%)	4 (Herbicidal ratio of 70% or more and less than 90%)	5 (Herbicidal ratio of 90% or more (almost completely withered))
COc1cccc(-c2nnc3c(C(=O)Nc4nnc(C)o4)ccc(C(F)(F)F)n23)c1 [1-046]	3 (Herbicidal ratio of 40% or more and less than 70%)	5 (Herbicidal ratio of 90% or more (almost completely withered))	0 (Herbicidal ratio of 5% or less (almost no effect))	5 (Herbicidal ratio of 90% or more (almost completely withered))	1 (Herbicidal ratio of 5% or more and less than 20%)	1 (Herbicidal ratio of 5% or more and less than 20%)	5 (Herbicidal ratio of 90% or more (almost completely withered))	2 (Herbicidal ratio of 20% or more and less than 40%)	0 (Herbicidal ratio of 5% or less (almost no effect))	5 (Herbicidal ratio of 90% or more (almost completely withered))	4 (Herbicidal ratio of 70% or more and less than 90%)	4 (Herbicidal ratio of 70% or more and less than 90%)
COc1ccccc1-c1nnc2c(C(=O)Nc3nnc(C)o3)ccc(C(F)(F)F)n12 [1-047]	3 (Herbicidal ratio of 40% or more and less than 70%)	5 (Herbicidal ratio of 90% or more (almost completely withered))	0 (Herbicidal ratio of 5% or less (almost no effect))	5 (Herbicidal ratio of 90% or more (almost completely withered))	1 (Herbicidal ratio of 5% or more and less than 20%)	1 (Herbicidal ratio of 5% or more and less than 20%)	4 (Herbicidal ratio of 70% or more and less than 90%)	2 (Herbicidal ratio of 20% or more and less than 40%)	0 (Herbicidal ratio of 5% or less (almost no effect))	4 (Herbicidal ratio of 70% or more and less than 90%)	4 (Herbicidal ratio of 70% or more and less than 90%)	4 (Herbicidal ratio of 70% or more and less than 90%)
Cc1nnc(NC(=O)c2ccc(C(F)(F)F)n3c(CC(=O)O)nnc23)o1 [1-048]	0 (Herbicidal ratio of 5% or less (almost no effect))	5 (Herbicidal ratio of 90% or more (almost completely withered))	1 (Herbicidal ratio of 5% or more and less than 20%)	4 (Herbicidal ratio of 70% or more and less than 90%)	2 (Herbicidal ratio of 20% or more and less than 40%)	2 (Herbicidal ratio of 20% or more and less than 40%)	5 (Herbicidal ratio of 90% or more (almost completely withered))	3 (Herbicidal ratio of 40% or more and less than 70%)	1 (Herbicidal ratio of 5% or more and less than 20%)	3 (Herbicidal ratio of 40% or more and less than 70%)	4 (Herbicidal ratio of 70% or more and less than 90%)	4 (Herbicidal ratio of 70% or more and less than 90%)
Cc1nnc(NC(=O)c2ccc(C(F)(F)F)n3c(CC(=O)OC(C)C)nnc23)o1 [1-049]	1 (Herbicidal ratio of 5% or more and less than 20%)	5 (Herbicidal ratio of 90% or more (almost completely withered))	2 (Herbicidal ratio of 20% or more and less than 40%)	5 (Herbicidal ratio of 90% or more (almost completely withered))	3 (Herbicidal ratio of 40% or more and less than 70%)	0 (Herbicidal ratio of 5% or less (almost no effect))	5 (Herbicidal ratio of 90% or more (almost completely withered))	3 (Herbicidal ratio of 40% or more and less than 70%)	2 (Herbicidal ratio of 20% or more and less than 40%)	4 (Herbicidal ratio of 70% or more and less than 90%)	4 (Herbicidal ratio of 70% or more and less than 90%)	4 (Herbicidal ratio of 70% or more and less than 90%)
